Data from PubChem BioAssay AID2060496 (Molecular Pharmacology Branch, DTP, NCI, 2025).
One block for each compound: values may come before it.

Tested on: 276233-004-R-J1-PDC complex spheroid viability
Test: Anticancer human tumor 276233-004-R-J1-PDC patient-derived colon adenocarcinoma cell line growth inhibition [GQUAD]
Details: for IC50: curve of first compound; for viability, T/C: stronger effect = lower value
Outline: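 Tumor cells were grown as complex spheroids with HUVEC endothelial cells and mesenchymal stem cells as stroma. G-quadruplex stabilizers were combined with targeted agents over half-log dilutions from near the clinical Cmax, or from 10 microM.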

[1] = second compound 0.0316 µM, first compound 0.0316 µM
[2] = second compound 0.0316 µM, first compound 0.1 µM
[3] = second compound 0.0316 µM, first compound 0.316 µM
[4] = second compound 0.0316 µM, first compound 1 µM
[5] = second compound 0.0316 µM, first compound 3.16 µM
[6] = second compound 0.0316 µM, first compound 10 µM
[7] = second compound 0.1 µM, first compound 0.0316 µM
[8] = second compound 0.1 µM, first compound 0.1 µM
[9] = second compound 0.1 µM, first compound 0.316 µM
[10] = second compound 0.1 µM, first compound 1 µM
[11] = second compound 0.1 µM, first compound 3.16 µM
[12] = second compound 0.1 µM, first compound 10 µM
[13] = second compound 0.316 µM, first compound 0.0316 µM
[14] = second compound 0.316 µM, first compound 0.1 µM
[15] = second compound 0.316 µM, first compound 0.316 µM
[16] = second compound 0.316 µM, first compound 1 µM
[17] = second compound 0.316 µM, first compound 3.16 µM
[18] = second compound 0.316 µM, first compound 10 µM
[19] = second compound 1 µM, first compound 0.0316 µM
[20] = second compound 1 µM, first compound 0.1 µM
[21] = second compound 1 µM, first compound 0.316 µM
[22] = second compound 1 µM, first compound 1 µM
[23] = second compound 1 µM, first compound 3.16 µM
[24] = second compound 1 µM, first compound 10 µM
[25] = second compound 3.16 µM, first compound 0.0316 µM
[26] = second compound 3.16 µM, first compound 0.1 µM
[27] = second compound 3.16 µM, first compound 0.316 µM
[28] = second compound 3.16 µM, first compound 1 µM
[29] = second compound 3.16 µM, first compound 3.16 µM
[30] = second compound 3.16 µM, first compound 10 µM
[31] = second compound 10 µM, first compound 0.0316 µM
[32] = second compound 10 µM, first compound 0.1 µM
[33] = second compound 10 µM, first compound 0.316 µM
[34] = second compound 10 µM, first compound 1 µM
[35] = second compound 10 µM, first compound 3.16 µM
[36] = second compound 10 µM, first compound 10 µM
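Note: spheroids exposed to drugs for seven days.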
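Throughout, for viability, T/C: 100% = DMSO vehicle control viability.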

Structure (SMILES): CC(C)(O)C1CCC(Nc2ccc3ncc(-c4cccc(C(F)(F)F)c4)n3n2)CC1 (centres undefined) + CN(C)c1ccc(Nc2c3ccc(NC(=O)CCN4CCCC4)cc3nc3cc(NC(=O)CCN4CCCC4)ccc23)cc1
- IC50 (second compound 0.0316 µM): > 10 µM
- IC50 (second compound 0.1 µM): 2.55 µM
- IC50 (second compound 0.316 µM): > 10 µM
- IC50 (second compound 1 µM): 1.06 µM
- IC50 (second compound 3.16 µM): 0.101 µM
- IC50 (second compound 10 µM): < 0.0316 µM
- viability, T/C [1]: 90.4%
- viability, T/C [2]: 84.4%
- viability, T/C [3]: 55.8%
- viability, T/C [4]: 84%
- viability, T/C [5]: 48.6%
- viability, T/C [6]: 57%
- viability, T/C [7]: 82.6%
- viability, T/C [8]: 69.2%
- viability, T/C [9]: 62.7%
- viability, T/C [10]: 57.4%
- viability, T/C [11]: 45.2%
- viability, T/C [12]: 46%
- viability, T/C [13]: 55.9%
- viability, T/C [14]: 55.4%
- viability, T/C [15]: 50.2%
- viability, T/C [16]: 57.1%
- viability, T/C [17]: 55%
- viability, T/C [18]: 46.6%
- viability, T/C [19]: 75%
- viability, T/C [20]: 56.3%
- viability, T/C [21]: 54.4%
- viability, T/C [22]: 56.3%
- viability, T/C [23]: 50.2%
- viability, T/C [24]: 41%
- viability, T/C [25]: 67.5%
- viability, T/C [26]: 45.4%
- viability, T/C [27]: 51.3%
- viability, T/C [28]: 39%
- viability, T/C [29]: 46.8%
- viability, T/C [30]: 34%
- viability, T/C [31]: 46.3%
- viability, T/C [32]: 43.4%
- viability, T/C [33]: 41.8%
- viability, T/C [34]: 35.5%
- viability, T/C [35]: 41%
- viability, T/C [36]: 22.4%

- IC50 (second compound 0.0316 µM): > 10 µM
- IC50 (second compound 0.1 µM): > 10 µM
- IC50 (second compound 0.316 µM): > 10 µM
- IC50 (second compound 1 µM): > 10 µM
- IC50 (second compound 3.16 µM): > 10 µM
- IC50 (second compound 10 µM): > 10 µM
Structure (SMILES): O=c1[nH]cc(F)c(=O)[nH]1 + Cc1cnc(CNC(=O)c2c(=O)c3ccc(N4CCCN(C)CC4)nc3n3c2sc2ccccc23)cn1
- viability, T/C [1]: 86.8%
- viability, T/C [2]: 82.2%
- viability, T/C [3]: 90.7%
- viability, T/C [4]: 81.2%
- viability, T/C [5]: 98.8%
- viability, T/C [6]: 97.5%
- viability, T/C [7]: 97.1%
- viability, T/C [8]: 96.5%
- viability, T/C [9]: 89.1%
- viability, T/C [10]: 89.7%
- viability, T/C [11]: 95.1%
- viability, T/C [12]: 102%
- viability, T/C [13]: 87.4%
- viability, T/C [14]: 99.8%
- viability, T/C [15]: 99.1%
- viability, T/C [16]: 85.6%
- viability, T/C [17]: 98.6%
- viability, T/C [18]: 99.1%
- viability, T/C [19]: 78.2%
- viability, T/C [20]: 87.6%
- viability, T/C [21]: 80.4%
- viability, T/C [22]: 90%
- viability, T/C [23]: 92.7%
- viability, T/C [24]: 94.4%
- viability, T/C [25]: 82.7%
- viability, T/C [26]: 74.9%
- viability, T/C [27]: 79.2%
- viability, T/C [28]: 82.8%
- viability, T/C [29]: 83.7%
- viability, T/C [30]: 82.2%
- viability, T/C [31]: 69.8%
- viability, T/C [32]: 79.3%
- viability, T/C [33]: 80.5%
- viability, T/C [34]: 86.2%
- viability, T/C [35]: 61.8%
- viability, T/C [36]: 79.6%
